Test results reported in ChEMBL document CHEMBL5724696, “Autophagy assay results for EUbOPEN Chemogenomics Library” (2024).

What was measured:
U2OS [1] = experiment: (§1) Here: values are normalized to the positive (DMSO; basel flux = defined as 100% suppression) and negative (250nM Torin1; mTOR inhibitor; maximal inducer of autophagy defined as 0% suppression) control compounds and represented as % of ER-phagy suppression. […] The impact of autophagy induction on cells is complex and depends on the affected target. […] Of note, treatment concentrations may be sub-optimal for specific compounds, leading to false negative annotations.; assay type: functional, Homo sapiens; details: Compound Concentration 1 uM, Culturing Media DMEM, 1 % Penicillin/Streptomycin, 10% Fetal bovin serum Add-On: blasticidin, Screening Media Control DMEM, 10% Fetal bovin serum Add-On: 1 µg/ml Doxycyclin, Screening Media Samples DMEM, 10% Fetal bovin serum Add-On: 1 µg/ml Doxycyclin 250nM Torin1
U2OS [2] = experiment: as §1; assay type: functional, Homo sapiens; details: Compound Concentration 1 uM, Culturing Media DMEM, 1 % Penicillin/Streptomycin, 10% Fetal bovin serum Add-On: blasticidin, Screening Media Control DMEM, 10% Fetal bovin serum Add-On: 1 µg/ml Doxycyclin, Screening Media Samples DMEM, 10% Fetal bovin serum Add-On: 1 µg/ml Doxycyclin 250nM Torin1; remark: listed apart in the source

| SMILES | ER-phagy suppression (U2OS [1]; Timepoint 12 hours) | ER-phagy suppression (U2OS [1]; Timepoint 24 hours) | ER-phagy suppression (U2OS [1]; Timepoint 36 hours) | ER-phagy suppression (U2OS [1]; Timepoint 60 hours) | ER-phagy suppression (U2OS [2]; Timepoint 12 hours) | ER-phagy suppression (U2OS [2]; Timepoint 24 hours) | ER-phagy suppression (U2OS [2]; Timepoint 36 hours) | ER-phagy suppression (U2OS [2]; Timepoint 54 hours) |
| --- | --- | --- | --- | --- | --- | --- | --- | --- |
| CN1CCC(COc2cnc(-c3cccc(Cn4nc(-c5cccc(C#N)c5)ccc4=O)c3)nc2)CC1 [TEPOTINIB] | -9.035% | 9.179% | 17.9604% | 23.3369% | 4.664% | -2.8541% | -6.061% | -17.192% |
| Cc1cnc(-c2cc(Cl)ccc2F)cc1-n1c(=O)n(CC(N)=O)c2cnccc21 [TP-008] | -1.571% | -13.0499% | -21.2168% | -35.4053% | -24.3103% | -37.6592% | -45.8786% | -56.4398% |
| CN1C(=O)[C@@H](N2CCc3cn(Cc4ccccc4)nc3C2=O)COc2ccccc21 [TP-030-1] | -22.1461% | -11.0455% | -18.8351% | -24.8138% | -1.154% | -18.125% | -30.7242% | -23.6126% |
| CN1C(=O)[C@@H](N2CCc3c(nn(Cc4ccccc4)c3Br)C2=O)COc2ccccc21 [TP-030-2] | -11.1908% | -12.0413% | -22.9996% | -25.2811% | 7.634% | -14.2706% | -10.5345% | -6.796% |
| CC(=O)Nc1cccc(-n2c(=O)n(C3CC3)c(=O)c3c(Nc4ccc(I)cc4F)n(C)c(=O)c(C)c32)c1 [TRAMETINIB] | 22.5636% | 31.8836% | 34.8635% | 24.7233% | -5.637% | 10.9132% | 18.5776% | 29.3457% |
| CNC(=O)c1ccccc1Nc1cc(Nc2ccc(N3CCOCC3)cc2OC)ncc1C(F)(F)F [VS-4718] | 7.822% | -10.4532% | -8.464% | -16.508% | 14.2845% | -7.017% | -5.515% | 11.4938% |
| NC(=O)c1ccc(N(C(N)=O)c2c(F)cccc2F)nc1-c1ccc(F)cc1F [VX-702] | 31.8026% | 34.6886% | 33.7769% | 30.7144% | 0.2881% | -13.3426% | -11.8024% | 0.1703% |
